Laboratory results taken from patent publication US11969433B2, “Compositions and methods for muscle regeneration using prostaglandin E2” (The Board of Trustees of the Leland Stanford Junior …, priority 2016, dated 2024).

Assays:
Type in all cases: cell-based, mouse
MuSCs [1] = test: Quantitative RT-PCR of MuSC transcripts
Excerpt: We isolated RNA from MuSCs using the RNeasy Micro Kit (Qiagen). For muscle samples, we snap froze the tissue in liquid nitrogen, homogenized the tissues using a mortar and pestle, followed by syringe and needle trituration, and then isolated RNA using Trizol (Invitrogen). We reverse-transcribed cDNA from total mRNA from each sample using the SensiFAST™ cDNA Synthesis Kit (Bioline). We subjected cDNA to RT-PCR using SYBR Green PCR Master Mix (Applied Biosystems) or TaqMan Assays (Applied Biosystems) in an ABI 7900HT Real-Time PCR System (Applied Biosystems). We cycled samples at 95° C. for 10 min and then 40 cycles at 95° C. for 15 s and 60° C. for 1 min. To quantify relative transcript levels, we used 2-ΔΔCt to compare treated and untreated samples and expressed the results relative to Gapdh. For SYBR Green qRT-PCR, we used the following primer sequences: Gapdh. forward 5′-[…]-3′ (SEQ ID NO: 1), reverse 5′-CCCTTTTGGCTCCACCCT-3′ (SEQ ID NO: 2); Hpgd, forward 5′-[…]-3′ (SEQ ID NO: 3), reverse 5′-[…]-3′ (SEQ ID NO: 4); Ptges, forward 5′-GCTGTCATCACAGGCCAGA-3′ (SEQ ID NO: 5), reverse 5′-[…]-3′ (SEQ ID NO: 6); Ptges2, forward 5′-[…]-3′ (SEQ ID NO: 7), reverse 5′-[…]-3′ (SEQ ID NO: 8); Ptger1, forward 5′ GTGGTGTCGTGCATCTGCT-3′ (SEQ ID NO: 9), reverse, 5′ […]-3′ (SEQ ID NO: 10), and Ptger2, forward 5′-[…]-3′ (SEQ ID NO: 11), reverse 5′-[…]-3′ (SEQ ID NO: 12). TaqMan Assays (Applied Biosystems) were used to quantify Pax7. Myogenin. Slco2a1 (PGT), Ptger3 and Ptger4 in samples according to the manufacturer instructions with the TaqMan Universal PCR Master Mix reagent kit (Applied Biosystems). Transcript levels were expressed relative to Gapdh levels. For SYBR Green qPCR, Gapdh qPCR was used to normalize input cDNA samples. For Taqman qPCR, multiplex qPCR enabled target signals (FAM) to be normalized individually by their internal Gapdh signals (VIC).

MuSCs [2] = test: EdU incorporation proliferation assay; details: young MuSCs, PGE2 10 ng/ml
Procedure: To assay proliferation, we used three different assays (hemocytometer, VisionBlue, and EdU). For each, we seeded MuSCs on flat hydrogels (hemocytometer and VisionBlue) or collagen-coated plates (EdU assay) at a density of 500 cells per cm^2 surface area. For hemocytometer cell number count, we collected cells at indicated timepoints by incubation with 0.5% trypsin in PBS for 5 min at 37° C. and quantified them using a hemocytometer at least 3 times. Additionally, we used the VisionBlue Quick Cell Viability Fluorometric Assay Kit (BioVision, catalog #K303) as a readout for cell growth in culture. Briefly, we incubated MuSCs with 10% VisionBlue in culture medium for 3 h, and measured fluorescence intensity on a fluorescence plate reader (Infinite M1000 PRO, Tecan) at Ex=530-570 nm, Em=590-620 nm. We assayed proliferation using the Click-iT EdU Alexa Fluor 555 Imaging kit (Life Technologies). Briefly, we incubated live cells with EdU (20 μM) for 1 hr prior to fixation, and stained nuclei according to the manufacturer's guidelines together with anti-MYOGENIN (Santa Cruz, catalog #sc576, 1:250) to assay differentiation. […] We quantified EdU positive cells using the MetaMorph Image Analysis software (Molecular Devices). Data analyses were blinded, where researchers performing cell scoring were unaware of the treatment condition given to sample groups analyzed.

aged MuSCs = test: Clonal aged MuSC proliferation and death by time-lapse microscopy in hydrogel microwells
Excerpt: We assayed clonal muscle stem cell proliferation by time-lapse microscopy as previously described^5,6. Briefly, we treated isolated aged MuSCs with PGE2 (Cayman Chemical) or vehicle (DMSO) for 24 hr. After five days of growth on hydrogels, cells were reseeded at a density of 500 cells per cm^2 surface area in hydrogel microwells with 600 μm diameter. For time-lapse microscopy we monitored cell proliferation for those wells with single cells beginning 12 hr (day 0) to two days after seeding and recorded images every 3 min at 10× magnification using a PALM/AxioObserver Z1 system (Carl Zeiss MicroImaging) with a custom environmental control chamber and motorized stage. We changed medium every other day in between the acquisition time intervals. We analyzed time-lapse image sequences using the Baxter Algorithms for Cell Tracking and Lineage Reconstruction to identify and track single cells and generate lineage trees^5,6,8-10.
Viable and dead cells were distinguished in time-lapse sequences based on phase-contrast boundary and motility maintenance or loss, respectively. […] The values were estimated using the equations described in^6, and found in Table 1. We denote the proliferation rates in the two intervals p24 and p48 and the corresponding death rates d24 and d48. […] The modeled cell counts in the two time intervals are given by […]

[3] = aged MuSCs, 1 day PGE2, 48 h tracking
[4] = first 24 hour interval, aged MuSC clones
[5] = second 24 hour interval, aged MuSC clones

CCCCC[C@H](O)/C=C/[C@H]1[C@H](O)CC(=O)[C@@H]1C/C=C\CCCC(=O)O [PGE2, prostaglandin E2]
transcript levels of Ptger1 and Ptger4 (MuSCs [1]; after 24 hr PGE2 treatment of MuSCs): upregulated | Pax7 expression in aged MuSCs (MuSCs [1]; aged MuSCs, 1-day pulse): maintenance | cell division assayed by EDU incorporation (MuSCs [2]): increased | percent increase in dead cell count (aged MuSCs; aged MuSC clones, acute PGE2): 0.1% | percent increase in live cell count (aged MuSCs; aged MuSC clones, acute PGE2, n=45 clones): 5.4% | cell death (aged MuSCs; [3]): profound reduction | cumulative cell numbers per clone (aged MuSCs; [3]): remarkable increase | Estimated death rate d24 (aged MuSCs; [4]): 0.0067 per hours | Estimated proliferation rate p24 (aged MuSCs; [4]): 0.0475 per hours | Estimated death rate d48 (aged MuSCs; [5]): 0.0012 per hours | Estimated proliferation rate p48 (aged MuSCs; [5]): 0.0538 per hours
